Test results: patent US10308959B2, “Methods, systems, and compositions relating to MiRNA-146a” (Henry Ford Health System, priority 2013, dated 2019)

System: diabetic mice (db/db mice)
Assay: Diabetic peripheral neuropathy in type II diabetic mice (db/db)
Format: in vivo, mouse
Text: DRG neurons play an important role in sensory conduction. Diabetic peripheral neuropathy is characterized by the loss and/or degeneration of neurons and the slowing of nerve conduction velocities. Using a mouse model of type II diabetes which develops severe peripheral neuropathy, we measured miR-146a expression in DRG neurons. […] FIG. 5H is quantitative data of caspase 3 positive cells. FIGS. 5I and J are neurological function measured by motor nerve conduction velocity (MCV, FIG. 5I) and sensory nerve conduction velocity (“SCV”, FIG. 5J). Red, blue, and black lines represent non-diabetic mice, diabetic mice treated with saline, and diabetic mice treated with sildenafil, respectively. *P<0.01 versus the nondiabetic group. #P<0.05 versus the diabetic group treated with saline. n=10/group. […] Elevation of miR-146a in DRG neurons by sildenafil rescued diabetes-induced DRG neuron death and improved neurological outcomes (FIG. 5).

[1] = diabetic mice treated with sildenafil

## CCCc1nn(C)c2c(=O)[nH]c(-c3cc(S(=O)(=O)N4CCN(C)CC4)ccc3OCC)nc12 [sildenafil]
[1]
  diabetes-induced DRG neuron death (caspase 3 positive cells): rescued
  miR-146a in DRG neurons: Elevation
Diabetic mice treated with sildenafil vs saline
  neurological outcomes (MCV, SCV): improved
